Data reported in US6174881A, “Hydroxymethylimidazodiazepines and their esters” (Hoffman-La Roche Inc., priority 1995, dated 2001).

Assays:
[1] = target: central benzodiazepine receptors; assay: inhibition of the binding of tritiated flumazenil to the specific benzodiazepine receptors in the cortex of rats; details: 50% inhibition of specific binding of tritiated flumazenil, rat cortex; read-out: Affinity to benzodiazepine receptors IC50
Protocol: The affinity of compounds of general formula I to the central benzodiazepine receptors was established in vitro according to the methods described in Nature 294, 763-765 (1981) and J. Neurochemistry 37, 714-722 (1981). According to these methods the inhibition of the binding of tritiated flumazenil to the specific benzodiazepine receptors in the cortex of rats by the respective test substances is determined. The IC50 ("50% inhibiting concentration") denotes that concentration of the respective test substance which brings about a 50 percent inhibition of the specific binding of tritiated flumazenil to the specific benzodiazepine receptors in the cortex of rats.

mice = assay: rotating rod test in mice (sedative/muscle relaxant properties), i.v.; type: in vivo, mouse; details: for ED50: Mus musculus, iv
Protocol: The sedative/muscle relaxant properties of the compounds of formula II in accordance with the invention can be determined, for example, in the rotating rod test. Mice weighing 19-21 g are used for this test. They have free access to feed and drinking water up to 1 hour prior to the beginning of the test. They are brought into the test laboratory at least 30 minutes prior to the test. In the rotating rod test the animals are placed on a horizontally arranged, smooth metal rod having a diameter of 3 cm., which is rotated at 2 revolutions per minute. Initially, the animals are given the opportunity of familiarizing themselves with the test situation for 30 seconds. Subsequently, those animals which succeed in remaining on the rod for at least 1 minute are selected. The test preparations are then administered intraveneously to these animals in different dosages. At various points in time it is then determined whether the animals are able to remain for a minimum period on the rod (minimum period: 10 seconds, 1 minute from 5 minutes after administration). That dosage at which 50% of the animals are capable of remaining on the rod is determined (ED50).

[2] = 15 s, minimum time 10 sec, 15 sec after administration
[3] = 0.5 min, minimum time 10 sec, 30 sec after administration
[4] = 1 min, minimum time 10 sec, 60 sec after administration
[5] = 2 min, minimum time 10 sec, 2 min after administration
[6] = 5 min, minimum time 60 sec, 5 min after administration
[7] = 0.25 h, minimum time 60 sec, 15 min after administration
[8] = 0.5 h, minimum time 60 sec, 30 min after administration
[9] = 1 h, minimum time 60 sec, 60 min after administration

Compound | IC50 [1] [nM] | ED50 (mice; [2]) [mg/kg] | ED50 (mice; [3]) [mg/kg] | ED50 (mice; [4]) [mg/kg] | ED50 (mice; [5]) [mg/kg] | ED50 (mice; [6]) [mg/kg] | ED50 (mice; [7]) [mg/kg] | ED50 (mice; [8]) [mg/kg] | ED50 (mice; [9]) [mg/kg] | Rotating rod test, ED50 (mice; minimum time 10 sec, 15 sec after administration, 0.25 min) [mg/kg] | Rotating rod test, ED50 (mice; minimum time 10 sec, 30 sec after administration, 0.5 min) | Rotating rod test, ED50 (mice; minimum time 10 sec, 60 sec after administration, 1 min) [mg/kg] | Rotating rod test, ED50 (mice; minimum time 10 sec, 2 min after administration) [mg/kg] | Rotating rod test, ED50 (mice; minimum time 60 sec, 5 min after administration) [mg/kg] | Rotating rod test, ED50 (mice; minimum time 60 sec, 15 min after administration) [mg/kg] | Rotating rod test, ED50 (mice; minimum time 60 sec, 30 min after administration) [mg/kg] | Rotating rod test, ED50 (mice; minimum time 60 sec, 60 min after administration) [mg/kg]
C=CCNCc1c(CO)nc2n1-c1ccc(Cl)cc1C(c1ccccc1F)=NC2 [D, 1-Allylaminomethyl-8-chloro-6-(2-fluorophenyl)-4H-imidazo[1,2-a][1,4]benzodiazepine-2-methanol] | 5.6 | 2.5 | 3 | 3.2 | 3.2 | 2.1 | 1.8 | ≥ 10 | > 10 | – | – | – | – | – | – | – | –
O=[N+]([O-])c1ccc2c(c1)C(c1ccccc1F)=NCc1nc(CO)cn1-2 [G, 6-(2-Fluorophenyl)-8-nitro-4H-imidazo[1,2-a][1,4]benzodiazepine-2 methanol] | 2.3 | 0.2 | 0.2 | 0.3 | 0.3 | 0.1 | 0.2 | 0.2 | ≥ 1 | – | – | – | – | – | – | – | –
2-Chloro-4-(2-fluorophenyl)-8,9-dihydro-6H-imidazo[1,2-a]thieno[3,2-f][1,4]diazepine-8-methanol | 2.6 | – | – | – | – | – | – | – | – | 0.5 | 0,7 mg/kg | 0.6 | 1.2 | 2.3 | 5.3 | ≥ 10 | > 10
OCc1cn2c(n1)CN=C(c1ccccc1)c1cc(C(F)(F)F)ccc1-2 [F, 8-Trifluoromethyl-6-phenyl-4H-imidazo[1,2-a][1,4]benzodiazepine-2 methanol] | 12 | 1 | 1.1 | 1.1 | > 3.2 | 1 | 0.9 | 1.1 | 1.8 | – | – | – | – | – | – | – | –
OCc1cn2c(n1)CN=C(c1ccccc1Cl)c1cc(Cl)ccc1-2 [E, 8-Chloro-6-(2-chlorophenyl)-4H-imidazo[1,2-a][1,4]benzodiazepine-2 methanol] | 1.2 | ≤ 0.32 | 0.4 | 0.5 | 3.2 | 0.9 | 0.5 | ≥ 3.2 | ≥ 3.2 | – | – | – | – | – | – | – | –
CC(=O)OCc1cn2c(n1)CN=C(c1ccccc1F)c1cc(Cl)sc1-2 [B] | 6 | 0.6 | 0.7 | 1.2 | 1 | ≥ 10 | ≥ 10 | ≥ 10 | > 10 | – | – | – | – | – | – | – | –
OCc1cn2c(n1)CN=C(c1ccccc1F)c1cc(Cl)ccc1-2 [C, 8-Chloro-6-(2-fluorophenyl)-4H-imidazo[1,2-a]benzodiazepine-2-methanol] | 1.7 | 0.1 | 0.3 | 0.3 | ≥ 10 | 0.8 | 0.4 | 1.1 | ≥ 10 | – | – | – | – | – | – | – | –
OCc1cn2c(n1)CN=C(c1ccccn1)c1cc(Br)ccc1-2 [I, 8-Bromo-6-(2-pyridyl)-4H-imidazo[1,2-a][1,4]benzodiazepine-2 methanol] | 40 | 1.5 | 2 | 3 | > 10 | 1.4 | 1.8 | 3 | ≥ 10 | – | – | – | – | – | – | – | –
OCc1cn2c(n1)CN=C(c1ccccc1F)c1cc(I)ccc1-2 [H, 6-(2-Fluorophenyl)-8-iodo-4H-imidazo[1,2-a][1,4]benzodiazepine-2 methanol] | 2.07 | 0.1 | 0.06 | 0.09 | 0.1 | 0.1 | 0.1 | ≥ 1 | > 1 | – | – | – | – | – | – | – | –
